According to patent US20120157385A1, “CYCLOSPORIN CONJUGATES” (UCL Business PLC, priority 2009, published 2012):

Legend:
rat hippocampal neurons = test: Oxygen and glucose deprivation (pseudo ischaemia/reperfusion) induced necrosis of hippocampal neurons; type: cell-based; conditions: for protection against neuron mortality (necrosis) following OGD: within 90 min, about 60% of neurons necrotic without compound
CyP-D(+) B50 cells = test: TMRE uptake (inner membrane potential) in B50 cells and CyP-D overexpressing clone; type: cell-based, rat
[1] = test system: intramitochondrial CyP-D rather than extramitochondrial CyP-A; conditions: for mitochondrial matrix/extramitochondrial accumulation ratio: isolated rat liver mitochondria plus recombinant CyP-A, 25° C.
[2] = test system: Permeability Transition (PT) pore; test: Ca2+-induced PT pore opening (swelling, absorbance at 540 nm) in isolated mitochondria; type: biochemical; conditions: read-out: concentration giving 50% inhibition of PT pore opening; isolated rat liver mitochondria, 50 μM Ca2+ infused slowly
[3] = test system: caspase-3 activation in B50 cells; test: Nitroprusside-induced caspase-3 activation in B50 cells (marker of CyP-A activity); type: cell-based, rat; conditions: 100 μM nitroprusside 40 min, assayed after 5 hr, Compound 1 at 2.5 μM
cyclophilin D (CyP-D) = cyclophilin D (CyP-D) (Rattus norvegicus, UniProt P29117); test: PPIase assay, inhibition of recombinant CyP-D by cyclosporins
Sequence of cyclophilin D (CyP-D) (P29117 30-206): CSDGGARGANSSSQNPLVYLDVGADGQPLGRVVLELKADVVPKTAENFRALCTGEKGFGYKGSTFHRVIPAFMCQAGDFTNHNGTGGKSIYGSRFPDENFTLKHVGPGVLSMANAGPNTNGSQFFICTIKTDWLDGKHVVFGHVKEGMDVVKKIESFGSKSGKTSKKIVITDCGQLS

[4] = test system: rat heart cells (ventricular cardiomyocytes); test: Oxygen and glucose deprivation / reoxygenation induced necrosis of heart cells; type: cell-based

C/C=C/C[C@@H](C)[C@@H](O)[C@H]1C(=O)N[C@@H](CC)C(=O)N(C)C(Cc2ccc(C(=O)NCCCCCCNC(=O)CCCCC[P+](c3ccccc3)(c3ccccc3)c3ccccc3)cc2)C(=O)N(C)[C@@H](CC(C)C)C(=O)N[C@@H](C(C)C)C(=O)N(C)[C@@H](CC(C)C)C(=O)N[C@@H](C)C(=O)N[C@H](C)C(=O)N(C)[C@@H](CC(C)C)C(=O)N(C)[C@@H](CC(C)C)C(=O)N(C)[C@@H](C(C)C)C(=O)N1C (stereo partly drawn) [Compound 1, (6-(6-(4-(((5S,8S,11S,14S,17R,20S,23S,26S,29S,32S)-32-ethyl-29-((1R,2R,E)-1-hydroxy-2-methylhex-4-enyl)-5,11,20,23-tetraisobutyl-8,26-diisopropyl-1,4,10,14,17,19,22,25,28-nonamethyl-3,6,9,12,15,18,21,24,27,30,33-undecaoxo-1,4,7,10,13,16,19,22,25,28,31-undecaazacyclotritriacontan-2-yl)methyl)benzamido)hexylamino)-6-oxohexyl)triphenylphosphonium]
protection against neuron mortality (necrosis) following OGD (rat hippocampal neurons; 30 min OGD): approximately halved | concentration giving maximal protection against OGD-induced necrosis (rat hippocampal neurons; hippocampal neurons, 30 min OGD): > 0.8 µM | concentration for maximal restoration of TMRE uptake by CyP-D(+) cells (CyP-D(+) B50 cells; B50 clone overexpressing CyP-D about 10-fold, 50 nM TMRE): ~2.4 µM | effect on TMRE uptake by wild type cells (CyP-D(+) B50 cells; wild type B50 cells, 0.8 μM CsA, 2.4 μM Compound 1): did not affect | inhibition of PT pore formation compared with inhibition of extramitochondrial CyP-A ([1]; same incubation, CyP-A activity in supernatant): considerably better | IC50 [2]: ~400 nM | effect on nitroprusside-induced activation of caspase-3 [3]: no significant effect

C/C=C/C[C@@H](C)[C@@H](O)[C@H]1C(=O)N[C@@H](CC)C(=O)N(C)C(Cc2ccc(C(=O)NCCCCCCNC(=O)c3ccc(-c4c5ccc(=[N+](C)C)cc-5oc5cc(N(C)C)ccc45)cc3)cc2)C(=O)N(C)[C@@H](CC(C)C)C(=O)N[C@@H](C(C)C)C(=O)N(C)[C@@H](CC(C)C)C(=O)N[C@@H](C)C(=O)N[C@H](C)C(=O)N(C)[C@@H](CC(C)C)C(=O)N(C)[C@@H](CC(C)C)C(=O)N(C)[C@@H](C(C)C)C(=O)N1C (some centres unmarked) [Compound 4]
Ki (cyclophilin D (CyP-D)): 120 nM | mitochondrial matrix/extramitochondrial accumulation ratio [1]: 4.2

C/C=C/C[C@@H](C)[C@@H](O)[C@H]1C(=O)N[C@@H](CC)C(=O)N(C)C(Cc2ccc(C(=O)NCCOCCNC(=O)CC[P+](c3ccccc3)(c3ccccc3)c3ccccc3)cc2)C(=O)N(C)[C@@H](CC(C)C)C(=O)N[C@@H](C(C)C)C(=O)N(C)[C@@H](CC(C)C)C(=O)N[C@@H](C)C(=O)N[C@H](C)C(=O)N(C)[C@@H](CC(C)C)C(=O)N(C)[C@@H](CC(C)C)C(=O)N(C)[C@@H](C(C)C)C(=O)N1C (stereo partly drawn) [Compound 3, 12-(4-(((5S,8S,11S,14S,17R,20S,23S,26S,29S,32S)-32-ethyl-29-((1R,2R,E)-1-hydroxy-2-methylhex-4-enyl)-5,11,20,23-tetraisobutyl-8,26-diisopropyl-1,4,10,14,17,19,22,25,28-nonamethyl-3,6,9,12,15,18,21,24,27,30,33-undecaoxo-1,4,7,10,13,16,19,22,25,28,31-undecaazacyclotritriacontan-2-yl)methyl)phenyl)-4,12-dioxo-1,1,1-triphenyl-8-oxa-5,11-diaza-1-phosphoniadodecane]
Ki (cyclophilin D (CyP-D)): 6 nM | mitochondrial matrix/extramitochondrial accumulation ratio [1]: >10

C/C=C/C[C@@H](C)[C@@H](O)[C@H]1C(=O)N[C@@H](CC)C(=O)N(C)CC(=O)N(C)[C@@H](CC(C)C)C(=O)N[C@@H](C(C)C)C(=O)N(C)[C@@H](CC(C)C)C(=O)N[C@@H](C)C(=O)N[C@H](C)C(=O)N(C)[C@@H](CC(C)C)C(=O)N(C)[C@@H](CC(C)C)C(=O)N(C)[C@@H](C(C)C)C(=O)N1C [CsA, Cyclosporin A]
protection against neuron mortality (necrosis) following OGD (rat hippocampal neurons; 30 min OGD): less protective | protection against OGD-induced necrosis at 0.1 μM (rat hippocampal neurons; hippocampal neurons, 0.1 μM): relatively small protection | protection against OGD-induced necrosis at higher concentrations (rat hippocampal neurons; hippocampal neurons, above 0.1 μM): reversed | maximal protection ([4]; necrosis after 3 hours of reoxygenation): 42%

CC[C@@H]1NC(=O)[C@H]([C@H](O)[C@H](C)C/C=C/C(=O)NCCOCCNC(=O)CC[P+](c2ccccc2)(c2ccccc2)c2ccccc2)N(C)C(=O)[C@H](C(C)C)N(C)C(=O)[C@H](CC(C)C)N(C)C(=O)[C@H](CC(C)C)N(C)C(=O)[C@@H](C)NC(=O)[C@H](C)NC(=O)[C@H](CC(C)C)N(C)C(=O)[C@H](C(C)C)NC(=O)[C@H](CC(C)C)N(C)C(=O)CN(C)C1=O [Compound 2, (16R,17R,E)-17-((2S,5S,11S,14S,17S,20S,23R,26S,29S,32S)-5-ethyl-11,17,26,29-tetraisobutyl-14,32-diisopropyl-1,7,10,16,20,23,25,28,31-nonamethyl-3,6,9,12,15,18,21,24,27,30,33-undecaoxo-1,4,7,10,13,16,19,22,25,28,31-undecaazacyclotritriacontan-2-yl)-17-hydroxy-16-methyl-4,12-dioxo-1,1,1-triphenyl-8-oxa-5,11-diaza-1-phosphoniaheptadec-13-ene]
Ki (cyclophilin D (CyP-D)): 30 nM | mitochondrial matrix/extramitochondrial accumulation ratio [1]: >10 | necrosis during reoxygenation ([4]; 5 hours reoxygenation, in particular first 3 hours): inhibited | necrosis induced by OGD for 4 hours ([4]; before reoxygenation, with or without compound): negligible necrosis | cytoprotection at 15 nM ([4]; necrosis after 3 hours of reoxygenation, 15 nM): complete protection
